Results: patent publication US7432299B2, “Method of treatment for sexual dysfunction” (Pfizer Inc., priority 2002, dated 2008)

Experiments:
[1] = test system: PCA-induced ejaculation in anaesthetised rats; test: p-chloroamphetamine (PCA)-induced ejaculation in anaesthetised rat model of premature ejaculation; format: in vivo; details: for animals that failed to ejaculate within 30 minutes: assigned ejaculatory latency of 1800 s
Experimental: In order to study penile erection and ejaculation the method used was based on the methodology taught in Yonezawa et al (2000) Life Sciences 67, 3031-3039. For ease of reference, this methodology is described below:
Male Sprague Dawley rats, weighing 350-450 g, are used. Prior to the experiments the animals are housed in groups (2 rats per cage) under controlled 12 h light-dark cycle (lights on at 07:00), constant temperature (23±1° C.) and humidity (55±5%). They have free access to standard food pellets and water.
Rats are anesthestised with sodium pentobarbitone (50 mg/kg, i.p.) and are placed in the supine position. The penis is extruded from its sheath and gently held by a wooden applicator positioned at the base of the penis. The test compounds are administered orally and p-chloroamphetamine (PCA) (5-10 mg/kg) is administered i.p. immediately before the sheath retraction and the penile responses, including penile erection, redding and expansion of the penile body, glans erection, engorgement and slight flaring of the glans and cup, glans erection with intense flaring of the glans, are recorded in the presence of test compound or vehicle. Latencies from PCA administration to the initial penile response and ejaculation is also measured in seconds in the presence of test compound or vehicle.
Compound (XI) was dosed orally and was tested at 1, 3, 10 or 30 mg/kg po, 60 min prior to PCA administration).

rapid ejaculating rats = test: Copulatory behaviour in rapid ejaculating conscious rats (model of premature ejaculation); format: in vivo, rat
Experimental: For all the sexual behavour tests, the rapid ejaculating male rats were used as an animal model of premature ejaculation (classified as ejaculatory latency <300 s during baseline assessment). Rapid ejaculating rats were placed in an observation arena (50-60 cm diameter), starting 5 hours into the dark cycle and observed under red ilumination. Three to four minutes after placing the male in the arena, a receptive female (ovariectomised, oestradiol benzoate/progesterone injection 48 hour before behavioural study) was introduced into the arena and the following parameters noted: • i) ejaculatory latency (EJL; time taken from addition of receptive female into the arena to ejaculation); • ii) copulatory efficiency (CE; ejaculatory latency/the number of intromissions to ejaculation, i.e. the number of seconds between intromissions); • iii) intromission frequency (IF; the number of intromissions to ejaculation); • iv) mount frequency (MF; the number of mounts to ejaculation); • v) post ejaculatory interval (PEI; the time taken from ejaculation to the commencement of copulatory behaviour). The Compound Used in the Following Examples was as Follows:
Rodent copulatory behaviour is characterised by a series of mounts, with and without vaginal insertion (50-80% of mounts result in intromission [vaginal penetration]) and ejaculation occurs after 6 to 12 intromissions. Each intromission lasts a matter of seconds—it is not possible to quantify intromission length i.e. intravaginal latency. The effect of Compound (XI) was assessed on a number of copulatory parameters (see above). We have focused ejaculatory latency as a clinical biomarker of time taken to achieve ejaculation. The study was performed in rapid ejaculating rats as a model of premature ejaculation (rats characterised by ejaculatory latency <300 s at baseline).
Compound (XI), an alpha-2-delta ligand, increased ejaculatory latency by 58% in rapidly-ejaculating conscious rats (P<0.01); i.e. Compound (XI) (10 mg/kg, 60 min post oral dosing)-treated animals took 219 s to ejaculate compared to 139 s in vehicle treated animals (see Table 2 below).

NC[C@]1(CC(=O)O)C[C@H]2CCC[C@H]21 [Compound (XI), (1R,5R,6S)-[6-(Aminomethyl)bicyclo[3.2.0]hept-6-yl]acetic acid]
animals that failed to ejaculate within 30 minutes ([1]; 3 mg/kg po): 3 out of 7 | time taken to achieve erection ([1]; 10 mg/kg po): small delay | animals that failed to ejaculate within 30 minutes ([1]; 10 mg/kg po): 3 out of 7 | time taken to achieve erection ([1]; 30 mg/kg po): small delay | p-chloroamphetamine (PCA)-induced ejaculation ([1]; anaesthetised rats, 1, 3, 10 or 30 mg/kg po, 60 min prior to PCA administration): significantly delayed | quality of erection ([1]; anaesthetised rats, 1-30 mg/kg po): not influenced | increase of ejaculatory latency ([1]; anaesthetised rats, dose-dependent, 1-30 mg/kg po, 60 min prior to PCA): up to 250% | ejaculatory latency ([1]; anaesthetised rats, doses above 3 mg/kg po, vehicle circa 300 s): circa 1000 s | ejaculatory latency (rapid ejaculating rats; 10 mg/kg po, mean ± sem (n = 6), P < 0.01): 219 ± 26 s | other effects on copulatory behaviour (rapid ejaculating rats; rapidly-ejaculating conscious rats, 10 mg/kg po): no other significant effects | increase of ejaculatory latency (rapid ejaculating rats; rapidly-ejaculating conscious rats, 10 mg/kg, 60 min post oral dosing, P<0.01): 58% | time to ejaculate (ejaculatory latency) (rapid ejaculating rats; rapidly-ejaculating conscious rats, 10 mg/kg, 60 min post oral dosing, vehicle 139 s): 219 s
